Data from PMC4284516 (Scientific Reports, 2015).

How the values were obtained:
[1] = test system: mice; conditions: cited from earlier work
[2] = test system: MAGL over FAAH; conditions: cited from earlier work
[3] = test system: Swiss mice; experiment: Novel object recognition task
[4] = test system: NMRI mice; experiment: Y-maze test; type: in vivo; conditions: 1.5 mg/kg, i.p.
[5] = molecular target: T1, human recombinant MAGL (rhMAGL) (Homo sapiens, UniProt Q99685); experiment: MAGL biochemical assay; conditions: read-out: IC50, rhMAGL; 4-nitrophenylacetate substrate; N = 3
T1 sequence (Q99685 1-303): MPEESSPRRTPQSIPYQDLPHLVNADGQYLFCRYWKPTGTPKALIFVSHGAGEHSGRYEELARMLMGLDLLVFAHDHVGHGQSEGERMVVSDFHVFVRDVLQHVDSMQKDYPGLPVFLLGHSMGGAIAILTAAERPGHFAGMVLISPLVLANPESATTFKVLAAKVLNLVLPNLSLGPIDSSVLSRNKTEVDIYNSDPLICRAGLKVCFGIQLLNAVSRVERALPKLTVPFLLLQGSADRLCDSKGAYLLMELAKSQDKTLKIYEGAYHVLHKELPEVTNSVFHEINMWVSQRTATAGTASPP

[6] = test system: OF1 mice; experiment: Mouse tetrad experiments; conditions: 15 mg/kg i.p.
[7] = test system: OF1 mice; experiment: Elevated plus-maze test; conditions: diazepam 3 mg/kg p.o., 60 min before testing
[8] = test system: OF1 mice; experiment: Pentylenetetrazol; conditions: diazepam 3 mg/kg i.p.
[9] = test system: OF1 mice; experiment: 6-Hz electroshock-induced seizures; type: in vivo; conditions: levetiracetam 20 mg/kg i.p.
[10] = test system: PBQ-induced writhing in OF1 mice; experiment: Phenylbenzoquinone; type: in vivo; conditions: combined with SAR127303 3 mg/kg p.o.
[11] = test system: rat hippocampal slices; experiment: [3H]ACh release evoked by electrical depolarisation in hippocampal slices; type: cell-based, Sprague-Dawley rats; conditions: rimonabant 10^−7 mol/L

## O=C(Oc1ccc([N+](=O)[O-])cc1)N1CCC(C(O)(c2ccc3c(c2)OCO3)c2ccc3c(c2)OCO3)CC1 [JZL184]
[1]
  dose impairing MWM performance (dose that also inhibits FAAH): 40 mg/kg

## O=C(OC(C(F)(F)F)C(F)(F)F)N1CCC(C(O)(c2ccc3c(c2)OCO3)c2ccc3c(c2)OCO3)CC1 [KML29]
[2]
  selectivity for MAGL over FAAH and most other serine hydrolases: > 100 fold

## C[C@]12N[C@H](Cc3ccccc31)c1ccccc12 [MK-801]
[3]; 0.125 mg/kg
  novelty index ratio versus control vehicle: significantly reduced

## c1ccc(C2(N3CCCCC3)CCCCC2)cc1 [PCP]
[4]
  spontaneous alternation versus vehicle: significant reduction

## COc1ccc2c(C3COC(CCCNC(=O)OCC(N)=O)OC3)cccc2c1 (stereo not shown) [SSR411298]
[5]
  IC50: > 10 µM

## Cc1c(C(=O)c2cccc3ccccc23)c2cccc3c2n1[C@H](CN1CCOCC1)CO3 [WIN55,512-2]
[6]
  antinociception in the tail-flick test: significant antinociceptive
  catalepsy: cataleptic
  duration of antinociceptive, hypothermic and cataleptic effects: at least 4 hours
  hypothermia: hypothermic
  locomotor activity: decreased significantly

## CN1C(=O)CN=C(c2ccccc2)c2cc(Cl)ccc21 [diazepam]
[7]
  percentage of time in open arms: opposite effects
[8]
  protection in the PTZ test: full protection

## CC[C@@H](C(N)=O)N1CCCC1=O [levetiracetam]
[9]
  protection in the 6-Hz test: full protection

## Cc1c(C(=O)NN2CCCCC2)nn(-c2ccc(Cl)cc2Cl)c1-c1ccc(Cl)cc1 [rimonabant]
[10]
  blockade of the anti-writhing effects of SAR127303: blocked
[11]
  reversal of the effect of 2-AG at 10^−8 mol/L on [3H]-ACh release: completely reversed
[3]; rimonabant 3 mg/kg + SAR127303 1 mg/kg
  novelty index ratio when coadministered with SAR127303: significantly different from chance level
